Data published in US9630001B2, “Methods for modulating osteochondral development using bioelectric stimulation” (MedRelief Inc., priority 2005, dated 2017).

System: Normal human cartilage cells (HCC)
Test: Cell growth assessed by DNA content of the cell layer
Assay type: cell-based
Details: 0.1% serum, PEMF 40 microAmps once every 24 hours, measured after 72 hours, L-NAME co-administered
Description: Normal human cartilage cells (HCC; CAMBREX®, Walkersville, Md.) were plated in rectangular cell chambers in monolayer. PEMF application was capacitively coupled through a niobium electrode bridge system which allowed a time varying current to flow uniformly through the chambers. A pulse-burst B-type signal as described herein is composed of a 10-msec burst of asymmetric rectangular pulses, 200/28 microseconds in width, repeated at 15 Hz. The PEMF signal was applied for 30 minutes per treatment. Cell growth was assessed by DNA content of the cell layer. Nitric oxide (NO) content of culture media was assessed by the Griess reaction using an assay kit from INVITROGEN INC.® (Carlsbad, Calif.). Results are expressed as micromoles of NO per cell number as assessed by DNA content of the cell layer.

**Q.** Which “effect on PEMF-increased cell number (DNA, FIG. 7)” value does the source give for COC(=O)[C@@H](N)CCCNC(=N)N[N+](=O)[O-] [L-NAME, N(G)-nitro-1-arginine methyl ester] here?
**A.** attenuated
